Experimental findings from patent publication US11576922B2, “CD73 inhibitors” (ORIC Pharmaceuticals, Inc., priority 2017, dated 2023) are described below.

One assay deals with T1, CD73 (Homo sapiens, UniProt P21589).
T1 sequence (P21589 27-549): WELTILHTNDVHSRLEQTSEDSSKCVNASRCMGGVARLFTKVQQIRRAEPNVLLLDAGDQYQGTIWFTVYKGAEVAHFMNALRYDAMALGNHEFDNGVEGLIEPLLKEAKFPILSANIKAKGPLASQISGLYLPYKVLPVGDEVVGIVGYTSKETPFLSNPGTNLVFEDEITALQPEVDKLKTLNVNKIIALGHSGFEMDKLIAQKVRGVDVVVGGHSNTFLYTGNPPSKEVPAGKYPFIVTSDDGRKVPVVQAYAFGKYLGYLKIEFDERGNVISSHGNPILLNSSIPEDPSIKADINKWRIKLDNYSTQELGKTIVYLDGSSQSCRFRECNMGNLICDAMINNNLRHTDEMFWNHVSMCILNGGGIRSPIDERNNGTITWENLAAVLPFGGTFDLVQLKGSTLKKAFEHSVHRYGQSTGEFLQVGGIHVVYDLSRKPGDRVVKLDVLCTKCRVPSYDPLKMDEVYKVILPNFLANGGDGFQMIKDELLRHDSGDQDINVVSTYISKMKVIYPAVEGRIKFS
The assay is described as follows: Example A1: Biochemical Assay (CD73 inhibition, Malachite Green detection of AMP hydrolysis). The conditions noted are these: Biochemical IC50, CD73 0.3208 nM, AMP 15 μM, Tris-HCl pH 7.4, Malachite Green, absorbance 620 nm. The protocol: Example A1: Biochemical Assay
Assay Reaction Conditions
• Assay Volume: 70 μl • Reaction Volume: 50 μl • CD73: 0.3208 nM • AMP: 15 μM • Assay Buffer: 2 5 mM Tris-HCL, pH 7.4, 0.01% Brij-35, 0.01% BSA, 5 mM MgCl2 Assay Procedure:
Made dose titration of testing compounds in assay buffer, 10 points ½ log titrations in duplicates starting at 100 μM.
Added 25 μl of CD73 to each well for a final concentration of […].
Incubated at RT for 15 min.
Added 25 μl of AMP to each well for a final concentration of 15 μM.
Incubated at RT for 10 min.
Added 10 μl of Malachite Green Reagent A, incubate at RT for 10 min.
Added 10 μl of Malachite Green Reagent B, incubate at RT for 45 min.
Read the Absorbance on Envision plate reader using excitation filter: Cy5 […].
The ability of the compounds disclosed herein to inhibit CD73 activity was quantified and the respective IC50 values were determined. Table 1 provides the biochemical IC50 values of compounds disclosed herein.
On to `O=P(O)(O)C[P@@](=O)(OC[C@H]1O[C@@H](n2nnc3c(NCc4ccccc4Cl)nc(Cl)nc32)[C@H](O)[C@@H]1O)Oc1ccccc1` [Example 33, (((R)-(((2R,3S,4R,5R)-5-(5-chloro-7-((2-chlorobenzyl)amino)-3H-[1,2,3]triazolo[4,5-d]pyrimidin-3-yl)-3,4-dihydroxytetrahydrofuran-2-yl)methoxy)(phenoxy)phosphoryl)methyl) phosphonic acid], for which the IC50 (in general, the midpoint of a concentration-inhibition curve) lay within 100 to 1000 nM.

Staying with this assay, now noted: CD73 0.3208 nM, AMP 15 μM, Tris-HCl pH 7.4, Malachite Green, absorbance 620 nm; read-out: Biochemical IC50.
For `COP(=O)(CP(=O)(O)O)OC[C@H]1OC(n2nnc3c(NC4CCc5ccccc54)nc(Cl)nc32)[C@H](O)[C@@H]1O` (stereo partly drawn) [Example 34, (((((2R,3S,4R,5S)-5-(5-chloro-7-(((S)-2,3-dihydro-1H-inden-1-yl)amino)-3H-[1,2,3]triazolo[4,5-d]pyrimidin-3-yl)-3,4-dihydroxytetrahydrofuran-2-yl)methoxy)(methoxy)phosphoryl)methyl) phosphonic acid], the IC50 lay within 100 to 1000 nM.

As to `CN(c1nc(Cl)nc2c1cnn2[C@@H]1O[C@H](COP(=O)(O)CP(=O)(O)O)[C@@H](O)[C@H]1O)[C@@H]1CCc2ccccc21` [Example 38, (((((2R,3S,4R,5R)-5-(6-chloro-4-(((R)-2,3-dihydro-1H-inden-1-yl)(methyl)amino)-1H-pyrazolo[3,4-d]pyrimidin-1-yl)-3,4-dihydroxytetrahydrofuran-2-yl)methoxy)(hydroxy)phosphoryl)methyl)phosphonic acid], the IC50 is below 100 nM.

As to `COP(=O)(CP(=O)(O)O)OC[C@H]1O[C@@H](n2ncc3c(N(C)C4CCc5ccccc54)nc(Cl)nc32)[C@H](O)[C@@H]1O` (stereo partly drawn) [Example 39, (((((2R,3S,4R,5R)-5-(6-Chloro-4-(((R)-2,3-dihydro-1H-inden-1-yl)(methyl)amino)-1H-pyrazolo[3,4-d]pyrimidin-1-yl)-3,4-dihydroxytetrahydrofuran-2-yl)methoxy)(methoxy)phosphoryl)methyl)phosphonic acid], the IC50 is below 100 nM.

Consider `C[C@@]1(O)[C@@H](COP(=O)(O)CP(=O)(O)O)O[C@@H](n2ncc3c(NCc4ccccc4Cl)nc(Cl)nc32)[C@@H]1O` [Example 40, (((((2R,3S,4R,5R)-5-(6-Chloro-4-((2-chlorobenzyl)amino)-1H-pyrazolo[3,4-d]pyrimidin-1-yl)-3,4-dihydroxy-3-methyltetrahydrofuran-2-yl)methoxy)(hydroxy)phosphoryl)methyl)phosphonic acid], for which the IC50 was below 100 nM.

For `O=P(O)(O)CP(=O)(O)OC[C@H]1O[C@@H](n2ncc3c(NCc4ccccc4Cl)nc(Cl)nc32)C[C@@H]1O` [Example 41, (((((2R,3S,5R)-5-(6-chloro-4-((2-chlorobenzyl)amino)-1H-pyrazolo[3,4-d]pyrimidin-1-yl)-3-hydroxytetrahydrofuran-2-yl)methoxy)(hydroxy)phosphoryl)methyl) phosphonic acid], the IC50 lay within 100 to 1000 nM.

Turning to `C[C@H](c1ccccc1)N(C)c1nc(Cl)nc2c1cnn2[C@@H]1O[C@H](COP(=O)(O)CP(=O)(O)O)[C@@H](O)[C@H]1O` [Example 42, (((((2R,3S,4R,5R)-5-(6-chloro-4-(methyl((R)-1-phenylethyl)amino)-1H-pyrazolo[3,4-d]pyrimidin-1-yl)-3,4-dihydroxytetrahydrofuran-2-yl)methoxy)(hydroxy)phosphoryl)methyl) phosphonic acid], the IC50 was below 100 nM.

Consider `Cc1nn([C@@H]2O[C@H](COP(=O)(O)CP(=O)(O)O)[C@@H](O)[C@H]2O)c2nc(Cl)nc(N(C)Cc3ccccc3)c12` [Example 43, (((((2R,3S,4R,5R)-5-(4-(benzyl(methyl)amino)-6-chloro-3-methyl-1H-pyrazolo[3,4-d]pyrimidin-1-yl)-3,4-dihydroxytetrahydrofuran-2-yl)methoxy)(hydroxy)phosphoryl)methyl) phosphonic acid], for which the IC50 is below 100 nM.

As for `Cc1nn([C@@H]2O[C@H](COP(=O)(O)CP(=O)(O)O)[C@@H](O)[C@H]2O)c2nc(Cl)nc(NCc3ccccc3Cl)c12` [Example 44, (((((2R,3S,4R,5R)-5-(6-chloro-4-((2-chlorobenzyl)amino)-3-methyl-1H-pyrazolo[3,4-d]pyrimidin-1-yl)-3,4-dihydroxytetrahydrofuran-2-yl)methoxy)(hydroxy)phosphoryl)methyl) phosphonic acid], the half-inhibitory concentration (IC50) was below 100 nM.

As to `C[C@@H](Nc1nc(Cl)nc2c1cnn2[C@@H]1O[C@H](COP(=O)(O)CP(=O)(O)O)[C@@H](O)[C@H]1O)c1ccccc1Cl` [Example 45, (((((2R,3S,4R,5R)-5-(6-chloro-4-(((R)-1-(2-chlorophenyl)ethyl)amino)-1H-pyrazolo[3,4-d]pyrimidin-1-yl)-3,4-dihydroxytetrahydrofuran-2-yl)methoxy)(hydroxy)phosphoryl)methyl) phosphonic acid], the IC50 was 100 to 1000 nM.

Consider `C[C@H](Nc1nc(Cl)nc2c1cnn2[C@@H]1O[C@H](COP(=O)(O)CP(=O)(O)O)[C@@H](O)[C@H]1O)c1ccccc1Cl` [Example 46, (((((2R,3S,4R,5R)-5-(6-chloro-4-(((S)-1-(2-chlorophenyl)ethyl)amino)-1H-pyrazolo[3,4-d]pyrimidin-1-yl)-3,4-dihydroxytetrahydrofuran-2-yl)methoxy)(hydroxy)phosphoryl)methyl) phosphonic acid], for which the IC50 was above 1000 nM.

For `CN(Cc1ccccc1)c1nc(Cl)nc2c1cnn2[C@@H]1O[C@H](COP(=O)(O)CP(=O)(O)O)C[C@H]1O` [Example 47, (((((2S,4R,5R)-5-(4-(benzyl(methyl)amino)-6-chloro-1H-pyrazolo[3,4-d]pyrimidin-1-yl)-4-hydroxytetrahydrofuran-2-yl)methoxy)(hydroxy)phosphoryl)methyl) phosphonic acid], the IC50 is below 100 nM.

Turning to `O=P(O)(O)CP(=O)(O)OC[C@@H]1C[C@@H](O)[C@H](n2ncc3c(NCc4ccccc4Cl)nc(Cl)nc32)O1` [Example 48, (((((2S,4R,5R)-5-(6-chloro-4-((2-chlorobenzyl)amino)-1H-pyrazolo[3,4-d]pyrimidin-1-yl)-4-hydroxytetrahydrofuran-2-yl)methoxy)(hydroxy)phosphoryl)methyl) phosphonic acid], the IC50 was below 100 nM.

Consider `COP(=O)(CP(=O)(O)O)OC[C@H]1O[C@@H](n2ncc3c(NCc4ccccc4Cl)nc(Cl)nc32)[C@H](O)[C@@H]1O` (stereo partly drawn) [Example 49, (((((2R,3S,4R,5R)-5-(6-chloro-4-((2-chlorobenzyl)amino)-1H-pyrazolo[3,4-d]pyrimidin-1-yl)-3,4-dihydroxytetrahydrofuran-2-yl)methoxy)(methoxy)phosphoryl)methyl) phosphonic acid], for which the IC50 was below 100 nM.

Take `CN(c1nc(Cl)nc2c1cnn2[C@@H]1O[C@H](COP(=O)(O)CP(=O)(O)O)[C@@H](O)[C@H]1O)[C@@H]1CCc2ccccc21` [Example 50, (((((2R,3S,4R,5R)-5-(6-chloro-4-(((R)-2,3-dihydro-1H-inden-1-yl)(methyl)amino)-1H-pyrazolo[3,4-d]pyrimidin-1-yl)-3,4-dihydroxytetrahydrofuran-2-yl)methoxy)(hydroxy)phosphoryl)methyl) phosphonic acid]: the IC50 was below 100 nM.
